Measured values reported in publication PMC6934184, “Selective DNA-PKcs inhibition extends the therapeutic index of localized radiotherapy and chemotherapy” (The Journal of Clinical Investigation, 2019).

Target: T1, NTRK3 (TRKC) (Homo sapiens, UniProt Q16288)
T1 construct: purchased Thermo Fisher Scientific (Life Technologies) SelectScreen
Assay: SelectScreen Z'LYTE
Type: biochemical
How it was run: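 Percent values come from Thermo SelectScreen profiling of NU5455, combining activity and binding assays. CSF1R was run in Z'LYTE format at Km app ATP, and CAMK1 in Adapta format with ATP listed at 10.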

T1 sequence (Q16288 32-839): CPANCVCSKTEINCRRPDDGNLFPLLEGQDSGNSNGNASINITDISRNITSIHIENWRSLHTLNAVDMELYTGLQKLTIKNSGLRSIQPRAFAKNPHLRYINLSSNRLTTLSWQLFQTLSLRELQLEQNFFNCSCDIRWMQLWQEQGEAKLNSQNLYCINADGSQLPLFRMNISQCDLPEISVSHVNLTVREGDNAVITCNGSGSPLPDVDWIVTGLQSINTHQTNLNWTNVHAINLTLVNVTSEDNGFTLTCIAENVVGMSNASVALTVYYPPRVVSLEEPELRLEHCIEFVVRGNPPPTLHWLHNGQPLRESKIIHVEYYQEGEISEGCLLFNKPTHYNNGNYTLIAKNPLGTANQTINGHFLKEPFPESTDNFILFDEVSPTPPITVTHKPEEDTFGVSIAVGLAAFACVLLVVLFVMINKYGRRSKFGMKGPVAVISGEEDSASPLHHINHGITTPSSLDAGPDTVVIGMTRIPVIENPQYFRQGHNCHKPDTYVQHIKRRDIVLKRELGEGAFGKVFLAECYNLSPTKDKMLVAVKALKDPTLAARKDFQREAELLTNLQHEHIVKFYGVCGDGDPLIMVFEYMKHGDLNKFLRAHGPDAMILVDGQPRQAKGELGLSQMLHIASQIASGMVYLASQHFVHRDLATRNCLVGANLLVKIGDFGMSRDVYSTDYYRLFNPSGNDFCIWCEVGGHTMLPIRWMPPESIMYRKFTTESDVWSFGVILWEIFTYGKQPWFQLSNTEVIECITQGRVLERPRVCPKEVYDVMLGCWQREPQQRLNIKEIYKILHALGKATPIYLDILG

## CN(C(=O)CN1CCOCC1)c1ccc2sc3c(-c4cccc5c(=O)cc(N6CC7CCC(C6)O7)oc45)cccc3c2c1 [NU5455]
  inhibition at 1 µM: 0.4%
